What was measured:
Assay type in all cases: cell-based
Ba/F3 cells with EGFR WT = biological target: T1, Ba/F3 cells with EGFR WT (Homo sapiens, UniProt P00533); assay: EGFR activity: Ba/F3 cell viability (CellTiter-Glo, 72 h), EGFR WT; details: read-out: BaF3 WT IC50
T1 construct: expressed in transfected cells; host or cells: Ba/F3 (murine pro-B cells), retroviral transduction, puromycin selection, maintained with EGF

[1] = biological target: T2, Ba/F3 cells with EGFR exon 20 ASV Ins V769_D770 (Homo sapiens, UniProt P00533, INS769ASV); assay: EGFR activity: Ba/F3 cell viability (CellTiter-Glo, 72 h), EGFR exon 20 ASV insertion; details: EGFR exon 20 ASV Ins V769_D770, cell viability, read-out: BaF3 ASV IC50
T2 construct: expressed in transfected cells; host or cells: Ba/F3 (murine pro-B cells), retroviral transduction, puromycin selection, IL3-independent pool

[2] = biological target: T3, Ba/F3 cells with EGFR exon 20 NPG Ins D770_N771 (Homo sapiens, UniProt P00533, INS770NPG); assay: EGFR activity: Ba/F3 cell viability (CellTiter-Glo, 72 h), EGFR exon 20 NPG insertion; details: EGFR exon 20 NPG Ins D770_N771, cell viability, read-out: BaF3 NPG IC50
T3 construct: expressed in transfected cells; host or cells: Ba/F3 (murine pro-B cells), retroviral transduction, puromycin selection, IL3-independent pool
T3 sequence (P00533 with tags, fused parts or gaps INS770NPG): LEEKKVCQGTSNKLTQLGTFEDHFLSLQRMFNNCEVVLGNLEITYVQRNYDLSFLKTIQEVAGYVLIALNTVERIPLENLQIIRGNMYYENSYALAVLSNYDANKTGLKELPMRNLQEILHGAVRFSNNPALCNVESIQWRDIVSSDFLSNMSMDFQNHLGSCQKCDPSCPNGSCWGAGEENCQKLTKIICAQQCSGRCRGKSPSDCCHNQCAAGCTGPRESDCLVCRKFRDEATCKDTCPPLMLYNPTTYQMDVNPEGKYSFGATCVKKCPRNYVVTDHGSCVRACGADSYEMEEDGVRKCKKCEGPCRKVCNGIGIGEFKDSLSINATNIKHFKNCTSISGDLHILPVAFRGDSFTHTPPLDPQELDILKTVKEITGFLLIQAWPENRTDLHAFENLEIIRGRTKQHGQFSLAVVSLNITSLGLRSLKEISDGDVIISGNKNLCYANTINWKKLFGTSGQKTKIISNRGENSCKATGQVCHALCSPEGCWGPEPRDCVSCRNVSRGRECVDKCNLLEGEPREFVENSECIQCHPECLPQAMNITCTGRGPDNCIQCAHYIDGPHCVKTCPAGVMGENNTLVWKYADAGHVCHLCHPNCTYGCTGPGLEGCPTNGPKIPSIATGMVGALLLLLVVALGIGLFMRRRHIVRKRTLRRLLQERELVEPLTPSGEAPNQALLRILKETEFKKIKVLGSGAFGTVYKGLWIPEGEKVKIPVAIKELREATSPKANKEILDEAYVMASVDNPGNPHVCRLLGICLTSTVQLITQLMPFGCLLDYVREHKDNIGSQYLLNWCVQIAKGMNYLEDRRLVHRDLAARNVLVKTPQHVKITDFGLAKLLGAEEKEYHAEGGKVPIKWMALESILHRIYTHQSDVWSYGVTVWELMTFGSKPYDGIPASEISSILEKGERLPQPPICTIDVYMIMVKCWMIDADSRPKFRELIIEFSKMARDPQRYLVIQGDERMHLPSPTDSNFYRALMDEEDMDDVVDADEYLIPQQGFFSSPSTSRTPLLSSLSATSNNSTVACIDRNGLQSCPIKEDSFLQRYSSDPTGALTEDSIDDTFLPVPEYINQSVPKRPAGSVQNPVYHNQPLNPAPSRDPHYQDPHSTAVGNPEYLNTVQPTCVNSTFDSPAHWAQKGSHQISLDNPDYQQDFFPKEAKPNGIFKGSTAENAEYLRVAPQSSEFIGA

T1 sequence (P00533 25-1210): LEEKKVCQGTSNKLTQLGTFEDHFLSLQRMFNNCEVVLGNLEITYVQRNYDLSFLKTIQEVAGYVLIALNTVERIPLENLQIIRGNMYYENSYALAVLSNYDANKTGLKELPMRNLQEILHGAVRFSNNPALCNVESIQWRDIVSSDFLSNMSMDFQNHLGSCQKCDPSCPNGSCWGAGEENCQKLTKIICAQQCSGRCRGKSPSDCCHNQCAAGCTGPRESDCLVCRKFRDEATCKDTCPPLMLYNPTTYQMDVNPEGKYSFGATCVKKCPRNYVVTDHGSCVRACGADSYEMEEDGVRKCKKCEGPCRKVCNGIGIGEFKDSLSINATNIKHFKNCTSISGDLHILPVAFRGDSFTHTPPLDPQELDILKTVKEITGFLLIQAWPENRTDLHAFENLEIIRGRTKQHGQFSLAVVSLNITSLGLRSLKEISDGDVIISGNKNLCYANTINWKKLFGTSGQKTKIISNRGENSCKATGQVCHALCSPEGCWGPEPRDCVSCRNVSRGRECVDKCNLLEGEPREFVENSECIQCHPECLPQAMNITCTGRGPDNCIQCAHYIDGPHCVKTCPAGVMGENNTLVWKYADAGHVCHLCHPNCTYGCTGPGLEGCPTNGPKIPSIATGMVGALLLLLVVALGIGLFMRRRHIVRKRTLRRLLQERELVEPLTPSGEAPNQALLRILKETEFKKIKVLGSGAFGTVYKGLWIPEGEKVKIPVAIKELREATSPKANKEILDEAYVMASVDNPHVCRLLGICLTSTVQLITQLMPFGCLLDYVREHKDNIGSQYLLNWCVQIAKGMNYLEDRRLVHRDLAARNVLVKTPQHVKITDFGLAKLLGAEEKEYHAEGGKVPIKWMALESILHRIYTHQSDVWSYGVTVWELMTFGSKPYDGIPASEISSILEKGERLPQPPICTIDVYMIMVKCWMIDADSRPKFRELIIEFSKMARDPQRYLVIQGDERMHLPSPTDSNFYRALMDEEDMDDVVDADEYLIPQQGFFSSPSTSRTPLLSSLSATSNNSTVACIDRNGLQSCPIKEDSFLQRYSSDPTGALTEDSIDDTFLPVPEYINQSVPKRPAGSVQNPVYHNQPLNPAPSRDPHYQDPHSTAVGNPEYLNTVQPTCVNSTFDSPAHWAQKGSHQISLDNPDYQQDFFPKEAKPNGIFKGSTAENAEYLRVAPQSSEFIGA
T2 sequence (P00533 with tags, fused parts or gaps INS769ASV): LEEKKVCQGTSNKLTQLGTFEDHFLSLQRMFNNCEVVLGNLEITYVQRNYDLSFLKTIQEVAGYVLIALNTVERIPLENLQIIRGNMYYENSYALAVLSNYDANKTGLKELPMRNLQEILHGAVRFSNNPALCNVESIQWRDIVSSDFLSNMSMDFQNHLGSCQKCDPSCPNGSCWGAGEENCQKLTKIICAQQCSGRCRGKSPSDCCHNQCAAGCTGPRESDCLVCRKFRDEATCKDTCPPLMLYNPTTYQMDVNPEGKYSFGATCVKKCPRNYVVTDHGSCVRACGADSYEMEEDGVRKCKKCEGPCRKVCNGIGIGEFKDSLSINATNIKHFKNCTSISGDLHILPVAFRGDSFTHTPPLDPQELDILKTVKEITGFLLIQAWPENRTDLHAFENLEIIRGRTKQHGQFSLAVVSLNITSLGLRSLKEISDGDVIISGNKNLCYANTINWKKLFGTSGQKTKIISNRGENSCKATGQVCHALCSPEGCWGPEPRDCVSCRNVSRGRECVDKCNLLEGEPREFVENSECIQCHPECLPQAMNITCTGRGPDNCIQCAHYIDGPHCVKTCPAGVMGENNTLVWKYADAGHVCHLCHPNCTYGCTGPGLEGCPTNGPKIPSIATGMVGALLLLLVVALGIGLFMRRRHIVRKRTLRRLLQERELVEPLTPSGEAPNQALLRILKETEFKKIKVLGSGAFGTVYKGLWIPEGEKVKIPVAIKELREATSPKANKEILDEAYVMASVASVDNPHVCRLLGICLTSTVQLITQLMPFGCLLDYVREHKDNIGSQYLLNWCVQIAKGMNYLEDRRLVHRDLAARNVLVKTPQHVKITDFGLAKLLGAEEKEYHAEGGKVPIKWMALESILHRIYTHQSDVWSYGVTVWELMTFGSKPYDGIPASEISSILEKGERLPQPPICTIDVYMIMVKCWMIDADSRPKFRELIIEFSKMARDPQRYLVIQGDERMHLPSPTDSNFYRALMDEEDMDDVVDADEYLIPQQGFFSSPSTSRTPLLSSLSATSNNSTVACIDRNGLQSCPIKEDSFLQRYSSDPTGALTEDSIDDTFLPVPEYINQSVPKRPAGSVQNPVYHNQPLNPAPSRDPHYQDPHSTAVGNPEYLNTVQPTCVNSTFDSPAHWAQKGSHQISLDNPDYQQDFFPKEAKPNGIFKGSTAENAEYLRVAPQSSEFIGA

Work on `COc1c(F)cccc1Nc1c(-c2ccncc2C#C[C@@H]2CCCO2)[nH]c2c1C(=O)NCC2` (single isomer, unassigned) [Compound 148a] yielded an IC50 (Ba/F3 cells with EGFR WT) greater than 1000 nM and an IC50 [1] of 100 to 1000 nM.
Work on `COc1c(F)cccc1Nc1c(-c2ccncc2C#CC2CCCO2)[nH]c2c1C(=O)NCC2` (single isomer, unassigned) [Compound 148b] yielded an IC50 (Ba/F3 cells with EGFR WT) greater than 1000 nM and an IC50 [1] of 100 to 1000 nM.
Work on `COc1c(F)cccc1Nc1c(-c2ccncc2OCCOC2CC2)[nH]c2c1C(=O)NCC2` [Compound 135, 2-(3-(2-cyclopropoxyethoxy)pyridin-4-yl)-3-((3-fluoro-2-methoxyphenyl)amino)-1,5,6,7-tetrahydro-4H-pyrrolo[3,2-c]pyridin-4-one] yielded an IC50 (Ba/F3 cells with EGFR WT) greater than 1000 nM and an IC50 [2] greater than 1000 nM.
Compound `COc1c(Cl)cccc1Nc1c(-c2ccncc2OC[C@@H]2CCCN2S(C)(=O)=O)[nH]c2c1C(=O)NCC2` [Compound 142a, (S)-3-((3-chloro-2-methoxyphenyl)amino)-2-(3-((1-(methylsulfonyl)pyrrolidin-2-yl)methoxy)pyridin-4-yl)-1,5,6,7-tetrahydro-4H-pyrrolo[3,2-c]pyridin-4-one] has an IC50 (Ba/F3 cells with EGFR WT) of 100 to 1000 nM and an IC50 [2] of 100 to 1000 nM.
`COc1c(F)cccc1Nc1c(-c2ccncc2C#CC(C)(C)OC)[nH]c2c1C(=O)NCC2` [compound 149] was tested, and the IC50 (Ba/F3 cells with EGFR WT) was greater than 1000 nM and the IC50 [2] was 100 to 1000 nM.
For `C=CC(=O)N1CCC[C@H]1COc1cnccc1-c1[nH]c2c(c1Nc1cccc(Cl)c1CC)C(=O)NCC2` [compound 216, 3-[(3-chloro-2-ethylphenyl)amino]-2-(3-{[(2S)-1-(prop-2-enoyl)pyrrolidin-2-yl]methoxy}pyridin-4-yl)-1H,5H,6H,7H-pyrrolo[3,2-c]pyridin-4-one], the IC50 (Ba/F3 cells with EGFR WT) was 100 to 1000 nM, the IC50 [2] was less than 100 nM and the IC50 [1] was less than 100 nM.
`C=CC(=O)N1CC(C)(C)C[C@@H]1C#Cc1cnccc1-c1[nH]c2c(c1Nc1cccc(Cl)c1OC)C(=O)NCC2` [compound 235, 3-[(3-chloro-2-methoxyphenyl)amino]-2-(3-{2-[(2R)-4,4-dimethyl-1-(prop-2-enoyl)pyrrolidin-2-yl]ethynyl}pyridin-4-yl)-1H,5H,6H,7H-pyrrolo[3,2-c]pyridin-4-one] showed an IC50 (Ba/F3 cells with EGFR WT) of less than 100 nM, an IC50 [2] of less than 100 nM and an IC50 [1] of less than 100 nM.
For `C=CC(=O)N1[C@H](C)CC[C@@H]1C#Cc1cnccc1-c1[nH]c2c(c1Nc1cccc(Cl)c1OC)C(=O)NCC2` [compound 238, 3-[(3-chloro-2-methoxyphenyl)amino]-2-(3-{2-[(2R,5R)-5-methyl-1-(prop-2-enoyl)pyrrolidin-2-yl]ethynyl}pyridin-4-yl)-1H,5H,6H,7H-pyrrolo[3,2-c]pyridin-4-one], the IC50 (Ba/F3 cells with EGFR WT) was 100 to 1000 nM, the IC50 [2] was less than 100 nM and the IC50 [1] was less than 100 nM.
`C=CC(=O)N1[C@H](C)CC[C@H]1C#Cc1cnccc1-c1[nH]c2c(c1Nc1cccc(Cl)c1OC)C(=O)NCC2` [compound 239, 3-[(3-chloro-2-methoxyphenyl)amino]-2-(3-{2-[(2S,5R)-5-methyl-1-(prop-2-enoyl)pyrrolidin-2-yl]ethynyl}pyridin-4-yl)-1H,5H,6H,7H-pyrrolo[3,2-c]pyridin-4-one] was tested, and the IC50 (Ba/F3 cells with EGFR WT) was less than 100 nM, the IC50 [2] was less than 100 nM and the IC50 [1] was less than 100 nM.
With `C=CC(=O)N1[C@H](C)CC[C@@H]1C#Cc1cnccc1-c1[nH]c2c(c1Nc1cccc(F)c1OC)C(=O)NCC2` [compound 256, 3-[(3-fluoro-2-methoxyphenyl)amino]-2-(3-{2-[(2R,5R)-5-methyl-1-(prop-2-enoyl)pyrrolidin-2-yl]ethynyl}pyridin-4-yl)-1H,5H,6H,7H-pyrrolo[3,2-c]pyridin-4-one] the IC50 (Ba/F3 cells with EGFR WT) was 100 to 1000 nM, the IC50 [2] was less than 100 nM and the IC50 [1] was less than 100 nM.
`C=CC(=O)NC1(C#Cc2cnccc2-c2[nH]c3c(c2Nc2cccc(F)c2OC)C(=O)NCC3)CCC1` [compound 262, N-{1-[2-(4-{3-[(3-fluoro-2-methoxyphenyl)amino]-4-oxo-1H,5H,6H,7H-pyrrolo[3,2-c]pyridin-2-yl}pyridin-3-yl)ethynyl]cyclobutyl}prop-2-enamide] showed an IC50 (Ba/F3 cells with EGFR WT) of 100 to 1000 nM, an IC50 [2] of less than 100 nM and an IC50 [1] of less than 100 nM.
`CC#CC(=O)N1CCOC[C@@H]1COc1cnccc1-c1[nH]c2c(c1Nc1cccc(F)c1OC)C(=O)NCC2` [compound 293, 2-(3-{[(3R)-4-(but-2-ynoyl)morpholin-3-yl]methoxy}pyridin-4-yl)-3-[(3-fluoro-2-methoxyphenyl)amino]-1H,5H,6H,7H-pyrrolo[3,2-c]pyridin-4-one] gave an IC50 (Ba/F3 cells with EGFR WT) greater than 1000 nM, an IC50 [2] greater than 1000 nM and an IC50 [1] greater than 1000 nM.
`COc1c(F)cccc1Nc1c(-c2ccncc2C#C[C@H]2CCCN2C(=O)/C=C/CN(C)C)[nH]c2c1C(=O)NCC2` [compound 303, 2-(3-{2-[(2R)-1-[(2E)-4-(dimethylamino)but-2-enoyl]pyrrolidin-2-yl]ethynyl}pyridin-4-yl)-3-[(3-fluoro-2-methoxyphenyl)amino]-1H,5H,6H,7H-pyrrolo[3,2-c]pyridin-4-one] was tested, and the IC50 (Ba/F3 cells with EGFR WT) was greater than 1000 nM, the IC50 [2] was 100 to 1000 nM and the IC50 [1] was 100 to 1000 nM.
In the case of `C=CC(=O)N1CCC[C@]1(C)C#Cc1cnccc1-c1[nH]c2c(c1Nc1cccc(F)c1C)C(=O)NCC2` [compound 304, 3-[(3-fluoro-2-methylphenyl)amino]-2-(3-{2-[(2R)-2-methyl-1-(prop-2-enoyl)pyrrolidin-2-yl]ethynyl}pyridin-4-yl)-1H,5H,6H,7H-pyrrolo[3,2-c]pyridin-4-one], the IC50 (Ba/F3 cells with EGFR WT) is reported as less than 100 nM, the IC50 [2] is reported as less than 100 nM and the IC50 [1] is reported as less than 100 nM.
Work on `C=CC(=O)N1CC[C@@H]1[C@H](C)Oc1cnccc1-c1[nH]c2c(c1Nc1cccc(F)c1OC)C(=O)NCC2` [compound 310, 3-[(3-fluoro-2-methoxyphenyl)amino]-2-{3-[(1S)-1-[(2R)-1-(prop-2-enoyl)azetidin-2-yl]ethoxy]pyridin-4-yl}-1H,5H,6H,7H-pyrrolo[3,2-c]pyridin-4-one] yielded an IC50 (Ba/F3 cells with EGFR WT) greater than 1000 nM, an IC50 [2] of 100 to 1000 nM and an IC50 [1] of 100 to 1000 nM.
`CC#CC(=O)N1CC[C@H]1C#Cc1cnccc1-c1[nH]c2c(c1Nc1cccc(Cl)c1OC)C(=O)NCC2` [compound 371] showed an IC50 (Ba/F3 cells with EGFR WT) of 100 to 1000 nM, an IC50 [2] of less than 100 nM and an IC50 [1] of less than 100 nM.
With `CC#CC(=O)N1CC[C@@H]1C#Cc1cnccc1-c1[nH]c2c(c1Nc1cccc(Cl)c1OC)C(=O)NCC2` [compound 372] the IC50 (Ba/F3 cells with EGFR WT) was 100 to 1000 nM, the IC50 [2] was less than 100 nM and the IC50 [1] was less than 100 nM.
`C=CC(=O)NC1(C#Cc2cnccc2-c2[nH]c3c(c2Nc2cccc(F)c2OC)C(=O)NCC3)CC2(COC2)C1` [compound 402] was tested, and the IC50 (Ba/F3 cells with EGFR WT) was greater than 1000 nM, the IC50 [2] was 100 to 1000 nM and the IC50 [1] was 100 to 1000 nM.
With `COc1c(F)cccc1Nc1c(-c2ccncc2C#C[C@H]2CCC[C@H]2OC)[nH]c2c1C(=O)NCC2` [compound 485] the IC50 (Ba/F3 cells with EGFR WT) was 100 to 1000 nM and the IC50 [1] was less than 100 nM.
For `COc1c(F)cccc1Nc1c(-c2ccncc2C#C[C@@H]2CCC[C@@H]2OC)[nH]c2c1C(=O)NCC2` [compound 486], the IC50 (Ba/F3 cells with EGFR WT) was greater than 1000 nM and the IC50 [1] was 100 to 1000 nM.
For `COc1c(Cl)cccc1Nc1c(-c2ccncc2C#CC2(OC)COC2)[nH]c2c1C(=O)NCC2` [compound 491], the IC50 (Ba/F3 cells with EGFR WT) was 100 to 1000 nM and the IC50 [1] was less than 100 nM.
`COc1ccccc1C#Cc1cnccc1-c1[nH]c2c(c1Nc1cccc(Cl)c1OC)C(=O)NCC2` [compound 497] showed an IC50 (Ba/F3 cells with EGFR WT) of 100 to 1000 nM and an IC50 [1] of less than 100 nM.
With `Cc1c(F)cccc1Nc1c(-c2ccncc2C#CC2CC2)[nH]c2c1C(=O)NCC2` [compound 498] the IC50 (Ba/F3 cells with EGFR WT) was greater than 1000 nM and the IC50 [1] was 100 to 1000 nM.
`COCC#Cc1cnccc1-c1[nH]c2c(c1Nc1cccc(F)c1C)C(=O)NCC2` [compound 500] was tested, and the IC50 (Ba/F3 cells with EGFR WT) was greater than 1000 nM and the IC50 [1] was 100 to 1000 nM.
`COc1ccccc1C#Cc1cnccc1-c1[nH]c2c(c1Nc1cccc(F)c1C)C(=O)NCC2` [compound 501] showed an IC50 (Ba/F3 cells with EGFR WT) of 100 to 1000 nM and an IC50 [1] of less than 100 nM.
Work on `COc1ccc(C#Cc2cnccc2-c2[nH]c3c(c2Nc2cccc(F)c2C)C(=O)NCC3)cn1` [compound 502] yielded an IC50 (Ba/F3 cells with EGFR WT) greater than 1000 nM and an IC50 [1] of 100 to 1000 nM.
Compound `COc1cccnc1C#Cc1cnccc1-c1[nH]c2c(c1Nc1cccc(F)c1C)C(=O)NCC2` [compound 503] has an IC50 (Ba/F3 cells with EGFR WT) of 100 to 1000 nM and an IC50 [1] of 100 to 1000 nM.
Work on `Cc1c(F)cccc1Nc1c(-c2ccncc2C#CC2CCOCC2)[nH]c2c1C(=O)NCC2` [compound 504] yielded an IC50 (Ba/F3 cells with EGFR WT) greater than 1000 nM and an IC50 [1] of 100 to 1000 nM.
Compound `Cc1c(F)cccc1Nc1c(-c2ccncc2C#CCN2CCOCC2)[nH]c2c1C(=O)NCC2` [compound 505] has an IC50 (Ba/F3 cells with EGFR WT) greater than 1000 nM and an IC50 [1] greater than 1000 nM.
Compound `Cc1c(F)cccc1Nc1c(-c2ccncc2C#Cc2cnn(C)c2)[nH]c2c1C(=O)NCC2` [compound 506] has an IC50 (Ba/F3 cells with EGFR WT) greater than 1000 nM and an IC50 [1] of 100 to 1000 nM.
With `Cc1c(F)cccc1Nc1c(-c2ccncc2C#CC2(C)COC2)[nH]c2c1C(=O)NCC2` [compound 507] the IC50 (Ba/F3 cells with EGFR WT) was greater than 1000 nM and the IC50 [1] was 100 to 1000 nM.
With `Cc1c(F)cccc1Nc1c(-c2ccncc2C#CC2CCOC2)[nH]c2c1C(=O)NCC2` (centres unmarked) [compound 508] the IC50 (Ba/F3 cells with EGFR WT) was greater than 1000 nM and the IC50 [1] was 100 to 1000 nM.
Work on `Cc1c(F)cccc1Nc1c(-c2ccncc2C#CC2COC2)[nH]c2c1C(=O)NCC2` [compound 509] yielded an IC50 (Ba/F3 cells with EGFR WT) greater than 1000 nM and an IC50 [1] of 100 to 1000 nM.
Work on `C=CC(=O)N1CC(F)(F)C[C@H]1C#Cc1cnccc1-c1[nH]c2c(c1Nc1cccc(Cl)c1OC)C(=O)NCC2` [compound 520] yielded an IC50 (Ba/F3 cells with EGFR WT) of less than 100 nM and an IC50 [1] of less than 100 nM.
In the case of `COC(C)C#Cc1cnccc1-c1[nH]c2c(c1Nc1cccc(F)c1C)C(=O)NCC2` (centres unmarked) [compound 524], the IC50 (Ba/F3 cells with EGFR WT) is reported as greater than 1000 nM and the IC50 [1] is reported as 100 to 1000 nM.
`COc1c(Cl)cccc1Nc1c(-c2ccncc2C#CC2CCC2)[nH]c2c1C(=O)NCC2` [compound 525] showed an IC50 (Ba/F3 cells with EGFR WT) greater than 1000 nM and an IC50 [1] of less than 100 nM.
`C=CC(=O)N1CCC1C#Cc1cnccc1-c1[nH]c2c(c1Nc1cccc(F)c1OC)C(=O)NCC2` (centres unmarked) [compound 544] was tested, and the IC50 (Ba/F3 cells with EGFR WT) was less than 100 nM and the IC50 [1] was less than 100 nM.
Compound `COc1c(Cl)cccc1Nc1c(-c2ccncc2C#CC2CC(F)(F)C2)[nH]c2c1C(=O)NCC2` [compound 548] has an IC50 (Ba/F3 cells with EGFR WT) greater than 1000 nM and an IC50 [1] of 100 to 1000 nM.
